Results on 1 compound are retold here after patent US12071602B2, “Inductively coupled capacitor wireless sensor system for rapid antimicrobial susceptibility testing” (SYRACUSE UNIVERSITY, priority 2021, dated 2024).

The subject of this experiment is E. coli MG1655. Put plainly: LC sensor relative permittivity growth monitoring (AST), ampicillin sensitive strain. In kind it is cell-based. As to conditions: 100 μg/mL ampicillin at the time of inoculation, cultured for 4 hours; observed within 30 mins; FIG. 12.

`CC1(C)S[C@@H]2[C@H](NC(=O)[C@H](N)c3ccccc3)C(=O)N2[C@H]1C(=O)O` [ampicillin]: the “growth in presence of ampicillin (relative permittivity)” value is on record as “inhibited”.
